Consider two molecules from US11407728B2, “Derivatives of EPA endocannabinoid epoxides as anti-inflammatory, anti-cancerous, anti-angiogenc and antiplatelet aggregation compounds” (The Board of Trustees of the University of Illinois, priority 2017, dated 2022).

Data set [1] addresses T1, CNR2 (cannabinoid receptor 2) (Homo sapiens, UniProt P34972).
T1 construct: Tango fusion module; by own knowledge of the PRESTO-Tango design: V2 tail, TEV cleavage site, tTA; (C); own knowledge of the PRESTO-Tango design; (N); host or cells: HTLA cells
Kind of data set: Presto-Tango β-arrestin recruitment assay, CNR2. The format is cell-based. Particulars: CNR2-transfected HTLA cells, luminescence, 1 μM AUDA; read-out: EC50 CNR2 activation. The source says: (§1) FIG. 5A and FIG. 5B show dose-response curves for cannabinoid receptor 1 (CNR1) and cannabinoid receptor 2 (CNR2), respectively. The dose response curves were generated by monitoring the relative luminescence of cannabinoid receptor 1 (CNR1) and cannabinoid receptor 2 (CNR2) of PRESTO-Tango gene-transfected HTLA cells for 17,18-EEQ-EA, EPEA, and CP 55940. Values shown are the mean±SEM of experiments performed multiple times (n=3-7) *P<0.05, **P<0.01, and ***P<0.001.
(§2) Binding of the parent compounds to putative receptors CNR1 and CNR2 (cannabinoid receptors 1 & 2) was measured by a Presto-Tango assay (FIG. 5A and FIG. 5B, respectively). These receptors are responsible for many downstream effects of marijuana derivatives as well as other endocannabinoids that have been previously reported in literature and this study explores if our compounds bind to these receptors. HTLA cells were received from the Roth Lab and CNR1 and CNR2 plasmids were purchased from Addgene. […] The following day, media was removed and 40 μL of diluted Bright-Glo solution (Promega, Madison. Wis.) was added to each well and incubated in the dark for 20 min at room temperature before luminescence recordings. Relative luminescence units (RLU) values were normalized to % receptor response, plotted as a function of compound concentration and analyzed using “DoseResp” in OriginPro.
(In general: Arrestin recruitment assays detect the binding of arrestin to an activated receptor.)

In data set [2] the test system is mouse BV-2 microglial cells. Kind of data set: Anti-inflammatory assay in BV-2 microglial cells, IL-6 secretion (ELISA) after LPS stimulation. Particulars: BV-2 cells pre-incubated 4 hours with varying concentrations, 25 ng/mL LPS, media collected at 24 hours. In kind it is cell-based. The method, then: FIG. 3A, FIG. 3B, FIG. 3C and FIG. 3D show the dose-dependent NO and Il-6 studies for 17,18-EEQ-EA and 8,9-EEQ-EA. BV-2 microglial cells were pre-incubated with varying concentrations of 17,18-EEQ-EA or 8,9-EEQ-EA for 4 hours followed by LPS (25 ng/mL) stimulation. Culture medium was collected after 24 hours and analyzed for NO (A, C) and IL-6 (B, D) production. Significant P values are indicated as *** (P≤0.001), ** (P≤0.01), and * (P≤0.05). Values are expressed as mean±SEM and +/− indicates LPS added or LPS not added. * represents P<0.05, ** represents P<0.01, *** represents P<0.001, **** represents P<0.0001 relative to LPS.
Experiments were performed with mouse BV-2 microglial cells. Cells were grown and maintained in Dulbecco's modified Eagle's medium supplemented with 10% fetal bovine serum, 1% streptomycin and penicillin at 37° C. in a 5% CO2 humidified air atmosphere. BV-2 cells were seeded in 24-well plates (200K cells/mL) and grown to 80-90% confluency. […] To determine nitrite and IL-6 production, media was collected at 24 hours and the production of nitric oxide (NO) was determined by using the Greiss method and IL-6 secretion was measured using ELISA (no. 583371; Cayman Chemical).
Background: ELISA stands for enzyme-linked immunosorbent assay.

In data set [3] the target is T2, CNR1 (cannabinoid receptor 1) (Homo sapiens, UniProt P21554).
T2 construct: Tango fusion module; by own knowledge of the PRESTO-Tango design: V2 tail, TEV cleavage site, tTA; (C); own knowledge of the PRESTO-Tango design; (N); host or cells: HTLA cells
Description: Presto-Tango β-arrestin recruitment assay, CNR1. In kind it is cell-based. Particulars: CNR1-transfected HTLA cells, luminescence, 1 μM AUDA; read-out: EC50 CNR1 activation.
Source text: as §1, §2

Data set [4] has as its target T3, fatty acid amide hydrolase (FAAH) (Rattus norvegicus, UniProt P97612).
T3 construct: incubated with 100 μg forebrain membrane; from tissue; host or cells: rat forebrain membranes
T3 sequence (P97612 1-579): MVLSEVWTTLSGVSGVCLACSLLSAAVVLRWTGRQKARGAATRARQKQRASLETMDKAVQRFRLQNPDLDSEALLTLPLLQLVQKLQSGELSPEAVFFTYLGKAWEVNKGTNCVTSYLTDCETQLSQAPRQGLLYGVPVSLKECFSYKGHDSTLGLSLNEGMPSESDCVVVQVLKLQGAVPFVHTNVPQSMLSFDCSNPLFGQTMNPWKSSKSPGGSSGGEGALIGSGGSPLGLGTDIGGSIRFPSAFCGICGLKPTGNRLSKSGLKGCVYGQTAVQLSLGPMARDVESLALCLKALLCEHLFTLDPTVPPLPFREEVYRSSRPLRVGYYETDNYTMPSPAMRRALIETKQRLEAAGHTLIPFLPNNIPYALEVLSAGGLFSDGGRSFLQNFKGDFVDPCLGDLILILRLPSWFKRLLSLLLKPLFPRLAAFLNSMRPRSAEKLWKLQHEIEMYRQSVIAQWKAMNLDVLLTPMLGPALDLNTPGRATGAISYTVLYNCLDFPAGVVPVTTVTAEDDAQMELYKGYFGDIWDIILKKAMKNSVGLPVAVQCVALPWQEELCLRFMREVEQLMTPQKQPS
Description: Fatty acid amide hydrolase (FAAH) hydrolysis in rat forebrain membranes. The format is in vitro ADME. Particulars: 50 μM substrate, 100 μg rat forebrain membrane, 5, 20 and 40 minutes, 37° C. The method, then:
(§3) FIG. 4A, FIG. 4B, FIG. 4C and FIG. 4D show FAAH (FIG. 4B and FIG. 4D) and sEH (FIG. 4A and FIG. 4C) hydrolysis of 17,18-EEQ-EA and 8,9-EEQ-EA, respectively. To determine the rate of hydrolysis by sEH, increasing substrate (8,9-EEQ-EA) concentrations were incubated at 37° C. with sEH ([E]final=6 nM). For Vmax and Km values, plots were fitted to the Michaelis-Menten equation using Origin Pro. For FAAH hydrolysis, membranes from rat forebrain tissue were isolated for time-based hydrolysis. Incubations were performed with 100 μg of forebrain protein and 50 μM of substrate for 5, 20 and 40 minutes at 37° C. Both reactions were measured for product conversion using LC-MS/MS.
For fatty acid amide hydrolase (FAAH) kinetics (FIG. 4B and FIG. 4D), rat forebrain membranes were homogenized in buffer (50 mM Tris pH 7.4, 1 mM EDTA and 3 mM MgCl2) and membrane pellet was collected as previously described. 8,9-EEQ-EA or 13,14-EDP-EA (50 μM) was incubated with 100 μg forebrain membrane containing 50 mM Tris (pH 7.4), 1 mM EDTA, 3 mM MgCl2 in a 0.5 mL reaction. Linearity of the reactions was confirmed at 5, 20 and 40 minutes. Reactions were stopped with methanol containing 1 mM PMSF and centrifuged at 10,000 g for 10 min to collect supernatant via LC-MS/MS.

The target of data set [5] is T4, recombinant sEH (Homo sapiens, UniProt P34913).
T4 sequence (P34913 1-555): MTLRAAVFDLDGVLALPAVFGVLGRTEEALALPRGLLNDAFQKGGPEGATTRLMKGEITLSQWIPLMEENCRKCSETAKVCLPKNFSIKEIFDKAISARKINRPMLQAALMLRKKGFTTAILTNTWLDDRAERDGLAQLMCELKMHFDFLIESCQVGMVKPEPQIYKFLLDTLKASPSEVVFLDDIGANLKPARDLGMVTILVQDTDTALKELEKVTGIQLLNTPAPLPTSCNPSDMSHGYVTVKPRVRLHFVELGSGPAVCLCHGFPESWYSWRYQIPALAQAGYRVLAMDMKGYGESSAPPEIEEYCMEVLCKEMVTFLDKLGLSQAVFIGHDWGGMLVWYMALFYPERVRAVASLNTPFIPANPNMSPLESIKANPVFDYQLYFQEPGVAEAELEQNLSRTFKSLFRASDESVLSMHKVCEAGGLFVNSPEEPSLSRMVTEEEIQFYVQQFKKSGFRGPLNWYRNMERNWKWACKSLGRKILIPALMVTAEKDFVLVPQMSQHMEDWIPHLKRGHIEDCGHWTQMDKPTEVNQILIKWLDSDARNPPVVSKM
Kind of data set: Soluble epoxide hydrolase (sEH) hydrolysis kinetics. In kind it is in vitro ADME. Particulars: 8,9-EEQ-EA versus 17,18 EEQ-EA. The method, then:
as §3
For soluble epoxide hydrolase (sEH) kinetics, increasing concentrations of substrates (8,9-EEQ-EA (FIG. 4C) and 17,18-EEQ-EA (FIG. 4A)) were incubated with recombinant sEH (final [6 nM]) in a 0.1 mL reaction containing NaPO4 (0.1 M, pH 7.4), bovine serum albumin (0.1 mg/ml) at 37° C. The enzymatic reaction was stopped after 5 min with equal volume of methanol with AUDA (0.5 μM) and centrifuged at 10,000 g for 10 min. The supernatant was saved and quantitated using LC-MS/MS. Data was fit to kinetic curves and the Michaelis-Menten equation was used to calculate Vmax and Km.

T2 sequence (P21554 whole entry, the tested form may be a part): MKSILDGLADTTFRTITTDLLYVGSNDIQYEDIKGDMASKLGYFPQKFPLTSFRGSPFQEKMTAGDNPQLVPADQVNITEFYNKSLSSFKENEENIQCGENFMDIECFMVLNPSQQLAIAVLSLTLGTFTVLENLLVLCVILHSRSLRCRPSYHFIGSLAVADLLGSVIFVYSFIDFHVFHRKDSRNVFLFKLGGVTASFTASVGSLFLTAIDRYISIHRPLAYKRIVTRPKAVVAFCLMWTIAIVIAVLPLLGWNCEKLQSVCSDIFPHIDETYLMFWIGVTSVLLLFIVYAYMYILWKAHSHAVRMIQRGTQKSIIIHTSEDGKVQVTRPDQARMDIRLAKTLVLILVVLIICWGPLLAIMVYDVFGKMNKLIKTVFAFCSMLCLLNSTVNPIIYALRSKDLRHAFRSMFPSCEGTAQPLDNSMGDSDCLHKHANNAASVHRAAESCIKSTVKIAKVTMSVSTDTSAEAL
T1 sequence (P34972 whole entry, the tested form may be a part): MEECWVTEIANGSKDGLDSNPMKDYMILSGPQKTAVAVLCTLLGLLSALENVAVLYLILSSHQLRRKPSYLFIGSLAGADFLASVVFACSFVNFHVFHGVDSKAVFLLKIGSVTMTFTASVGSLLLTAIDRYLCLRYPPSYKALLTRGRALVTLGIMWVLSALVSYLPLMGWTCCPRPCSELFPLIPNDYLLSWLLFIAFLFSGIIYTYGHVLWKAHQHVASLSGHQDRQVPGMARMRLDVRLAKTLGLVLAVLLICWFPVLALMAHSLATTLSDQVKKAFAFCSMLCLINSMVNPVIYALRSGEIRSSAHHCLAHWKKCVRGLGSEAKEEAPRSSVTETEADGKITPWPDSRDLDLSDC

For the molecule `CCC1OC1C/C=C\C/C=C\C/C=C\C/C=C\CCCC(=O)NCCO` (stereo not drawn) [17,18-EEQ-EA], the EC50 (commonly the concentration that produces a half-maximal response) in data set [1] stood at 1.4 nM; in data set [3] it was 18.5 nM. In addition, the IL-6 secretion entry in data set [2] is given as “reduced IL-6 in a dose-dependent manner”.
On to `CC/C=C\C/C=C\C/C=C\CC1OC1C/C=C\CCCC(=O)NCCO` (stereo not drawn) [8,9-EEQ-EA], for which the “rate of FAAH hydrolysis to the corresponding EEQ” value in data set [4] is given as “comparable to the rate of 17, 18-EEQ-EA to 17,18-EEQ”. In data set [2], the IL-6 secretion entry is reported as “reduced IL-6 in a dose-dependent manner”. Besides, the “sEH turnover rate relative to 17,18 EEQ-EA (times)” value in data set [5] is 4 times.
